Assay results reported in patent publication US20220081446A1, “CRYSTAL FORM OF 1,2,3-TRIAZOLO[1,5-A]PYRAZINES DERIVATIVE AND PREPARATION METHOD FOR CRYSTAL FORM” (Jiangsu Hengrui Medicine Co., Ltd., priority 2019, published 2022).

How the values were obtained:
[1] = Investigation of influencing factors (stability under heating, illumination, high humidity); format: physicochemical
Procedure: The sample of the crystal form A (Example 5) was spread out, and its stability was investigated under the conditions of heating (40° C., 60° C.), illumination (4500 Lux) and high humidity (RH 75%, RH 90%). The sampling was investigated over 30 days.

[2] = DVS (dynamic vapor sorption) hygroscopicity test; format: physicochemical
Procedure: According to the definition of hygroscopicity characteristics and hygroscopic weight gain in “9103 guiding principles for hygroscopicity of drugs” in the fourth volume of Chinese Pharmacopoeia (2015 Edition),
DVS indicates dynamic vapor sorption: the determination is carried out by SMS DVS Advantage at 25° C. with a humidity change of 50%-95%-0%-95%-50%, and the step of 10% (the last step is 5%) (The specific range of humidity is subject to the corresponding spectrum, and the methods listed here are those used in most cases), and the judgment standard is that dm/dt is not more than 0.02%.

[3] = Long term/accelerated stability; format: physicochemical
Procedure: The crystal form A (Example 5) was placed at 25° C., 60% RH and 40° C., 75% RH to investigate its stability

HBV capsid protein = HBV capsid protein (Hepatitis B virus genotype D subtype ayw, UniProt P03146); conditions: from PCT/CN2018/097170; cited from earlier work
[4] = from PCT/CN2018/097170; cited from earlier work
HepG2 cells [5] = conditions: read-out: CC50 (proliferation inhibition), 72 hours, CellTiter-Glo
Procedure: HepG2 cells taken in logarithmic growth stage were prepared into the cell suspension through digestion with trypsin, and then the suspension was cultured with 6,000 cells/well in 96-well plate (96-well White/Clear Flat Bottom plate) under 5% carbon dioxide at 37° C. for 16-20 hours. On the second day, the compound was dissolved in pure DMSO with the concentration of 20 mM, and then the gradient dilution of the compound was carried out by using Automatic pipetting workstation (Bravo) with the dilution times of 3, where there were 8 concentration points for each compound, and the control well was DMSO; next, the compound with each concentration treated by DMSO was diluted 200 times using EMEM (containing 10% FBS) medium. The cell culture plate inoculated on the first day was taken out, and then the medium in the well plate was sucked out by using the negative pressure suction device. Into each well, the prepared medium containing each concentration of compound was added respectively, which was cultured with 100 μl/well at 37° C. for 72 hours. On the fifth day, the 96-well cell plate was taken out, and the freshly prepared CellTiter Glo was added into each well with 100 μL/well, left to stand for 5-10 minutes, sealed for the bottom of the 96-well plate with a white back cover film (PerkinElmer), placed into the Microplate Reader, and measured for the Luminescence signal by the reader.

HepG2 cells [6] = conditions: from PCT/CN2018/097170; cited from earlier work
[7] = tested on: HBV DNA replication in HepG2.2.15 cells; test: In vitro anti-HBV activity test (quantitative analysis of intracellular HBV DNA); format: cell-based; conditions: HBV DNA by quantitative PCR
Source text: Test Example 1: In Vitro Anti-HBV Activity Test (Quantitative Analysis of Intracellular HBV DNA)
HepG2.2.15 cells were stable expression cell lines integrated with HBV genome, which can be secreted out of cells through replication, transcription, translation and packaging into virus particles with HBV DNA. In this study, the quantitative PCR method was used to quantitatively analyze the HBV DNA produced by the proliferation of HepG2.2.15 in vitro, thus determining the activity of the compounds in the present disclosure to inhibit HBV DNA replication through inhibiting the assembly of HBV capsid protein.
HepG2.2.15 cells were cultured in DMEM/high glucose medium (10% FBS, 400 μg/ml G418) and passaged every 3 days. On the day of experiment, fresh cell culture medium was used to prepare cell suspension, which was cultured with 40,000 cells/well in 96 well plate (Corning, #3599) under 5% carbon dioxide at 37° C. […] The extracted DNA was analyzed by HBV DNA quantitative PCR using Hepatitis B virus nucleic acid quantitative detection kit from Tepp biology, with the method specifically mentioned in the instructions of the kit. The quantitative standard curve was determined in parallel experiment using the own standard sample of the kit. Each sample was converted quantitatively based on the standard curve. […]

Sequence of HBV capsid protein (P03146 whole entry): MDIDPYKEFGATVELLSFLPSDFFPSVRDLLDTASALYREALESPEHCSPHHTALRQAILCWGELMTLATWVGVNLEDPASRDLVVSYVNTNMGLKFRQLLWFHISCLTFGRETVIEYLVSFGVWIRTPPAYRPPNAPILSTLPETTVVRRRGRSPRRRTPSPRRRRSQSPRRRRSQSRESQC

C[C@H]1Cn2nnc(C(=O)N[C@H](C)C(F)(F)F)c2CN1C(=O)Nc1ccc(F)c(F)c1 [Crystal form A, (S)-N^5-(3,4-difluorophenyl)-6-methyl-N^3-((R)-1,1,1-trifluoropropan-2-yl)-6,7-dihydro-[1,2,3]triazolo[1,5-a]pyrazine-3,5(4H)-dicarbonamide]
Color and character ([1]; 4500 Lux, day 5): white solid | Purity % ([1]; 4500 Lux, day 5): 98.27% | Color and character ([1]; 4500 Lux, day 10): white solid | Purity % ([1]; 4500 Lux, day 10): 98.27% | Color and character ([1]; 4500 Lux, day 30): white solid | Crystal form ([1]; 4500 Lux, day 30): No changed | Purity % ([1]; 4500 Lux, day 30): 98.30% | Color and character ([1]; RH 75%, day 5): white solid | Purity % ([1]; RH 75%, day 5): 98.26% | Weight gain % ([1]; RH 75%, day 5): 2.28% | Color and character ([1]; RH 75%, day 10): white solid | Purity % ([1]; RH 75%, day 10): 98.29% | Weight gain % ([1]; RH 75%, day 10): 2.72% | Color and character ([1]; RH 75%, day 30): white solid | Crystal form ([1]; RH 75%, day 30): No changed | Purity % ([1]; RH 75%, day 30): 98.29% | Weight gain % ([1]; RH 75%, day 30): 6.68% | Color and character ([1]; RH 90%, day 5): white solid | Purity % ([1]; RH 90%, day 5): 98.26% | Weight gain % ([1]; RH 90%, day 5): 2.93% | Color and character ([1]; RH 90%, day 10): white solid | Purity % ([1]; RH 90%, day 10): 98.28% | Weight gain % ([1]; RH 90%, day 10): 3.19% | Color and character ([1]; RH 90%, day 30): white solid | Crystal form ([1]; RH 90%, day 30): No changed | Purity % ([1]; RH 90%, day 30): 98.30% | Weight gain % ([1]; RH 90%, day 30): 10.70% | Color and character ([1]; heating 40° C., day 5): white solid | Purity % ([1]; heating 40° C., day 5): 98.28% | Color and character ([1]; heating 40° C., day 10): white solid | Purity % ([1]; heating 40° C., day 10): 98.31% | Color and character ([1]; heating 40° C., day 30): white solid | Crystal form ([1]; heating 40° C., day 30): No changed | Purity % ([1]; heating 40° C., day 30): 98.32% | Color and character ([1]; heating 60° C., day 5): white solid | Purity % ([1]; heating 60° C., day 5): 98.26% | Color and character ([1]; heating 60° C., day 10): white solid | Purity % ([1]; heating 60° C., day 10): 98.27% | Color and character ([1]; heating 60° C., day 30): white solid | Crystal form ([1]; heating 60° C., day 30): No changed | Purity % ([1]; heating 60° C., day 30): 98.30% | physical and chemical stability ([1]; illumination, 40° C., 60° C., high humidity 75% and 90%, storing for 30 days): good physical and chemical stability | Color and character ([1]; start, day 0): white solid | Purity % ([1]; start, day 0): 98.30% | hygroscopicity class ([2]; 70% RH): no or little hygroscopicity | hygroscopicity class ([2]; 90% RH): slight hygroscopicity, or no/little hygroscopicity | crystal form after DVS detection (XRPD) ([2]; before vs after DVS): remained unchanged | desorption process ([2]; humidity change from 0% to 95% RH): consistent with the adsorption process | hygroscopic weight gain ([2]; normal storage condition, 25° C. and 60% RH): about 0.07% | Purity % ([3]; 25° C., 60% RH, 1 month): 98.3% | Purity % ([3]; 25° C., 60% RH, 2 months): 98.3% | Purity % ([3]; 25° C., 60% RH, 3 months): 98.3% | Purity % ([3]; 25° C., 60% RH, 6 months): 98.3% | Purity % ([3]; 25° C., 60% RH, start): 98.3% | Purity % ([3]; 40° C., 75% RH, 1 month): 98.3% | Purity % ([3]; 40° C., 75% RH, 2 months): 98.3% | Purity % ([3]; 40° C., 75% RH, 3 months): 98.3% | Purity % ([3]; 40° C., 75% RH, 6 months): 98.2% | Purity % ([3]; 40° C., 75% RH, start): 98.3% | physical and chemical stability ([3]; stored for 6 months, long-term (25° C., 60% RH) and acceleration (40° C., 75% RH)): excellent physical and chemical stability

C[C@H]1Cn2nnc(C(=O)N[C@H](C)C(F)(F)F)c2CN1C(=O)Nc1ccc(F)c(F)c1 [Compound B, (S)-N^5-(3,4-difluorophenyl)-6-methyl-N^3-((R)-1,1,1-trifluoropropan-2-yl)-6,7-dihydro-[1,2,3]triazolo[1,5-a]pyrazine-3,5(4H)-dicarbonamide]
inhibitory effect on the normal assembly of HBV capsid protein (HBV capsid protein): obvious inhibitory effect | bioavailability [4]: high | pharmacokinetic absorption [4]: good | CC50 (HepG2 cells [5]): > 100 µM | effect on the proliferation inhibition of HepG2 cells in vitro (HepG2 cells [6]): no or little effect | Emax (maximum inhibitory effect on HBV DNA replication) [7]: 100% | EC50 ([7]; read-out: EC50 (inhibition of HBV DNA replication)): 0.019 µM
